In PubChem BioAssay AID256 (DTP/NCI, 2004):
Values joined by “and” are separate entries in the source; they are usually repeats but may differ in a detail not shown here. Equal values may be shown once. Inconclusive results and toxic doses are left out. Residues, ends and D or L forms follow the SMILES beside them. *: point of attachment. Cbz = O=C(OCc1ccccc1)*

Test system: CD2F1 mice, L1210 leukemia ip, survival T/C
Test: NCI In Vivo Anticancer Drug Screen. Data for tumor model L1210 Leukemia (intraperitoneal) in CD2F1 (CDF1) mice
Details: endpoint: mean survival time, higher = longer survival
Outline: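 Tumor-bearing mice (transplanted tumor) were split into treated and vehicle control groups, and the measured endpoint of each treated group was divided by that of its vehicle controls.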

[1] = dose: 12.5 mg/kg/injection, schedule: Q01DX009 (ip), vehicle: saline with Tween-80
[2] = dose: 25.0 mg/kg/injection, schedule: Q01DX009 (ip), vehicle: saline with Tween-80
[3] = dose: 50.0 mg/kg/injection, schedule: Q01DX009 (ip), vehicle: saline with Tween-80
[4] = dose: 100.0 mg/kg/injection, schedule: Q01DX009 (ip), vehicle: saline with Tween-80
[5] = dose: 200.0 mg/kg/injection, schedule: Q01DX009 (ip), vehicle: saline with Tween-80
[6] = dose: 400.0 mg/kg/injection, schedule: Q01DX009 (ip), vehicle: saline with Tween-80
[7] = dose: 100.0 mg/kg/injection, schedule: Q04DX003 (ip), vehicle: saline with Tween-80
[8] = dose: 200.0 mg/kg/injection, schedule: Q04DX003 (ip), vehicle: saline with Tween-80
[9] = dose: 400.0 mg/kg/injection, schedule: Q04DX003 (ip), vehicle: saline with Tween-80

`CNc1ccc(O)cc1` was tested, and the T/C (dose: 5.0 mg/kg/injection, schedule: Q01DX009 (ip), vehicle: saline sonified) was 101 % of control, the T/C (dose: 5.0 mg/kg/injection, schedule: Q04DX003 (ip), vehicle: saline) was 91 % of control and the T/C (dose: 10.0 mg/kg/injection, schedule: Q01DX009 (ip), vehicle: saline sonified) was 103 % of control. For the same compound, the T/C (dose: 10.0 mg/kg/injection, schedule: Q04DX003 (ip), vehicle: saline) was 97 % of control, the T/C (dose: 20.0 mg/kg/injection, schedule: Q01DX009 (ip), vehicle: saline sonified) was 104 % of control and the T/C (dose: 20.0 mg/kg/injection, schedule: Q04DX003 (ip), vehicle: saline) was 101 % of control.
With `COC(=O)C1=CCC[N+](C)(C)C1` the T/C (dose: 1.56 mg/kg/injection, schedule: Q04DX002 (ip), vehicle: saline) was 93 % of control, the T/C (dose: 3.13 mg/kg/injection, schedule: Q04DX002 (ip), vehicle: saline) was 93 % of control and the T/C (dose: 6.25 mg/kg/injection, schedule: Q04DX002 (ip), vehicle: saline) was 93 % of control and 105 % of control.
In the case of `C[N+](C)(C)c1ccc(Cc2ccc([N+](C)(C)C)cc2)cc1`, the T/C (dose: 6.3 micrograms/kg/injection, schedule: Q04DX002 (ip), vehicle: saline with Tween-80) is reported as 101 % of control, the T/C (dose: 12.5 micrograms/kg/injection, schedule: Q04DX002 (ip), vehicle: saline with Tween-80) is reported as 108 % of control and the T/C (dose: 25.0 micrograms/kg/injection, schedule: Q04DX002 (ip), vehicle: saline with Tween-80) is reported as 101 % of control.
`CCN(CCNc1ccc(C)c2sc3ccccc3c(=O)c12)CC(C)(C)O` was tested, and the T/C (dose: 200.0 mg/kg/injection, schedule: Q01DX001 (ip), vehicle: saline) was 112 % of control and the T/C (dose: 400.0 mg/kg/injection, schedule: Q04DX003 (ip), vehicle: saline) was 174 % of control.
For `O=C(Nc1nncs1)c1cccs1`, the T/C [1] was 95 % of control and 104 % of control, the T/C [2] was 93 % of control and 103 % of control and the T/C [3] was 93 % of control and 94 % of control. For the same compound, the T/C [4] was 92 % of control and 100 % of control, the T/C [5] was 118 % of control and the T/C [6] was 172 % of control.
In the case of `CCC1=C(C)C(=O)Nc2c3ncnc-3ncn2C1O` (configuration not stated), the T/C [3] is reported as 104 % of control, the T/C [4] is reported as 101 % of control and the T/C [5] is reported as 102 % of control.
In the case of `NC(=O)CNC(=O)CNC(=O)CNC(=O)OCc1ccccc1` (Cbz-Gly-Gly-Gly-NH2), the T/C [1] is reported as 105 % of control, the T/C [2] is reported as 102 % of control and the T/C [3] is reported as 95 % of control.
With `C[Si](C)(C)c1c(F)c(F)c(F)c(F)c1F` the T/C [7] was 96 % of control, the T/C [8] was 94 % of control and the T/C [9] was 88 % of control.
With `CN=C(N)c1ccc(N=C(N)c2ccc(N=C(N)c3ccc(NC(=O)c4ccc(C(=O)Nc5ccc(C(N)=Nc6ccc(C(N)=Nc7ccc(C(N)=NC)cc7)cc6)cc5)cc4)cc3)cc2)cc1` the T/C (dose: 62.5 mg/kg/injection, schedule: Q01DX Z (ip), vehicle: water) was 111 % of control.
With `CCCCCCCCCCC(CCCCCCCCCC)c1ccccc1` the T/C (dose: 100.0 mg/kg/injection, schedule: Q01DX001 (ip), vehicle: saline sonified) was 108 % of control, the T/C (dose: 200.0 mg/kg/injection, schedule: Q01DX001 (ip), vehicle: saline sonified) was 104 % of control and the T/C (dose: 400.0 mg/kg/injection, schedule: Q01DX001 (ip), vehicle: saline sonified) was 114 % of control.
For `CCCCCC(=O)COCC`, the T/C [7] was 103 % of control, the T/C [8] was 91 % of control and the T/C [9] was 103 % of control.
With `CN(C)CCC(C#N)(c1ccccc1)c1ccccc1` the T/C (dose: 75.0 mg/kg/injection, schedule: Q01DX001 (ip), vehicle: saline) was 102 % of control and the T/C (dose: 150.0 mg/kg/injection, schedule: Q01DX001 (ip), vehicle: saline) was 100 % of control.
`Nc1ncnc2c1ncn2C1OC(C(N)C(=O)O)C(O)C1O` (configuration not stated) was tested, and the T/C (dose: 6.25 mg/kg/injection, schedule: Q01DX005 (ip), vehicle: distilled water + Tween-80) was 101 % of control, the T/C (dose: 12.5 mg/kg/injection, schedule: Q01DX005 (ip), vehicle: distilled water + Tween-80) was 96 % of control and the T/C (dose: 25.0 mg/kg/injection, schedule: Q01DX005 (ip), vehicle: distilled water + Tween-80) was 98 % of control. The T/C (dose: 50.0 mg/kg/injection, schedule: Q01DX005 (ip), vehicle: distilled water + Tween-80) was 98 % of control and the T/C (dose: 100.0 mg/kg/injection, schedule: Q01DX005 (ip), vehicle: distilled water + Tween-80) was 103 % of control.
With `CC(C)N(C(=S)S)C(C)C` the T/C [7] was 101 % of control, the T/C [8] was 100 % of control and the T/C [9] was 92 % of control.
With `COC(=O)C(Cc1ccc(O)cc1)NC(=O)C(C)NC(=O)OCc1ccccc1` (configuration not stated) the T/C [4] was 92 % of control, the T/C [5] was 93 % of control and the T/C [6] was 88 % of control.
In the case of `Cc1ccc(S(=O)(=O)NCCC(=O)Nc2ccccc2)cc1`, the T/C (dose: 50.0 mg/kg/injection, schedule: Q01DX009 (ip), vehicle: water) is reported as 86 % of control, the T/C (dose: 100.0 mg/kg/injection, schedule: Q01DX009 (ip), vehicle: water) is reported as 86 % of control and the T/C (dose: 200.0 mg/kg/injection, schedule: Q01DX009 (ip), vehicle: water) is reported as 93 % of control.
